Assay results reported in ChEMBL document CHEMBL1201861, “Genomics of Drug Sensitity in Cancer screening data, Wellcome Trust Sanger Institute”.
“And” between values parts separate entries of the source, which are not always exact repeats. Identical values can stand only once. Where a SMILES comes first, the peptide text is derived from it. The star is where a group is joined. Cbz = O=C(OCc1ccccc1)*

How the values were obtained:
PF-382 = experiment: cells; type: functional, cell-based, Homo sapiens
Description: SANGER: Inhibition of human PF-382 cell growth in a cell viability assay.

NCI-H719 = experiment: cells; type: functional, cell-based, Homo sapiens
Description: SANGER: Inhibition of human NCI-H719 cell growth in a cell viability assay.

CHP-126 = experiment: cells; type: functional, cell-based, Homo sapiens
Description: SANGER: Inhibition of human CHP-126 cell growth in a cell viability assay.

NCI-H1436 = experiment: cells; type: functional, cell-based, Homo sapiens
Description: SANGER: Inhibition of human NCI-H1436 cell growth in a cell viability assay.

ECC12 = experiment: cells; type: functional, cell-based; settings: Homo sapiens
Description: SANGER: Inhibition of human ECC12 cell growth in a cell viability assay.

EW-12 = experiment: SANGER: Inhibition of human EW-12 cell growth in a cell viability assay.; type: functional, cell-based
BC1 cell line = experiment: SANGER: Inhibition of human BC-1 cell growth in a cell viability assay.; type: functional, cell-based
HC-1 = experiment: cells; type: functional, cell-based, Homo sapiens
Description: SANGER: Inhibition of human HC-1 cell growth in a cell viability assay.

NCI-H2107 = experiment: SANGER: Inhibition of human NCI-H2107 cell growth in a cell viability assay.; type: functional, cell-based
NB14 = experiment: cells; type: functional, cell-based, Homo sapiens
Description: SANGER: Inhibition of human NB14 cell growth in a cell viability assay.

HMV-2 cell line = experiment: cells; type: functional, cell-based; settings: Homo sapiens
Description: SANGER: Inhibition of human HMV-II cell growth in a cell viability assay.

Daoy = experiment: cells; type: functional, cell-based; settings: Homo sapiens
Description: SANGER: Inhibition of human Daoy cell growth in a cell viability assay.

TT = experiment: cells; type: functional, cell-based; settings: Homo sapiens
Description: SANGER: Inhibition of human TT cell growth in a cell viability assay.

SK-OV-3 = experiment: cells; type: functional, cell-based; settings: Homo sapiens
Description: SANGER: Inhibition of human SK-OV-3 cell growth in a cell viability assay.

C-4-II = experiment: SANGER: Inhibition of human C-4-II cell growth in a cell viability assay.; type: functional, cell-based
DMS-53 = experiment: cells; type: functional, cell-based; settings: Homo sapiens
Description: SANGER: Inhibition of human DMS-53 cell growth in a cell viability assay.

OVCAR-8 = experiment: cells; type: functional, cell-based; settings: Homo sapiens
Description: SANGER: Inhibition of human OVCAR-8 cell growth in a cell viability assay.

SW1573 = experiment: cells; type: functional, cell-based; settings: Homo sapiens
Description: SANGER: Inhibition of human SW1573 cell growth in a cell viability assay.

CCF-STTG1 = experiment: cells; type: functional, cell-based; settings: Homo sapiens
Description: SANGER: Inhibition of human CCF-STTG1 cell growth in a cell viability assay.

Calu-1 = experiment: SANGER: Inhibition of human Calu-1 cell growth in a cell viability assay.; type: functional, cell-based
MG-63 = experiment: cells; type: functional, cell-based; settings: Homo sapiens
Description: SANGER: Inhibition of human MG-63 cell growth in a cell viability assay.

CHP-212 = experiment: cells; type: functional, cell-based; settings: Homo sapiens
Description: SANGER: Inhibition of human CHP-212 cell growth in a cell viability assay.

HPAF-II = experiment: cells; type: functional, cell-based; settings: Homo sapiens
Description: SANGER: Inhibition of human HPAF-II cell growth in a cell viability assay.

NCI-H520 = experiment: cells; type: functional, cell-based; settings: Homo sapiens
Description: SANGER: Inhibition of human NCI-H520 cell growth in a cell viability assay.

KYSE-270 = experiment: cells; type: functional, cell-based; settings: Homo sapiens
Description: SANGER: Inhibition of human KYSE-270 cell growth in a cell viability assay.

MES-SA = experiment: cells; type: functional, cell-based; settings: Homo sapiens
Description: SANGER: Inhibition of human MES-SA cell growth in a cell viability assay.

CAL-33 = experiment: cells; type: functional, cell-based; settings: Homo sapiens
Description: SANGER: Inhibition of human CAL-33 cell growth in a cell viability assay.

GCT = experiment: cells; type: functional, cell-based; settings: Homo sapiens
Description: SANGER: Inhibition of human GCT cell growth in a cell viability assay.

NCI-H1618 = experiment: cells; type: functional, cell-based; settings: Homo sapiens
Description: SANGER: Inhibition of human NCI-H1618 cell growth in a cell viability assay.

H4 = experiment: cells; type: functional, cell-based; settings: Homo sapiens
Description: SANGER: Inhibition of human H4 cell growth in a cell viability assay.

BCPAP = experiment: cells; type: functional, cell-based; settings: Homo sapiens
Description: SANGER: Inhibition of human BCPAP cell growth in a cell viability assay.

JEG-3 = experiment: cells; type: functional, cell-based; settings: Homo sapiens
Description: SANGER: Inhibition of human JEG-3 cell growth in a cell viability assay.

C32 = experiment: cells; type: functional, cell-based; settings: Homo sapiens
Description: SANGER: Inhibition of human C32 cell growth in a cell viability assay.

CAPAN-1 = experiment: cells; type: functional, cell-based; settings: Homo sapiens
Description: SANGER: Inhibition of human CAPAN-1 cell growth in a cell viability assay.

MIA PaCa-2 = experiment: cells; type: functional, cell-based; settings: Homo sapiens
Description: SANGER: Inhibition of human MIA-PaCa-2 cell growth in a cell viability assay.

647-V = experiment: cells; type: functional, cell-based; settings: Homo sapiens
Description: SANGER: Inhibition of human 647-V cell growth in a cell viability assay.

BHY = experiment: cells; type: functional, cell-based; settings: Homo sapiens
Description: SANGER: Inhibition of human BHY cell growth in a cell viability assay.

NCI-H2228 = experiment: cells; type: functional, cell-based; settings: Homo sapiens
Description: SANGER: Inhibition of human NCI-H2228 cell growth in a cell viability assay.

VMRC-RCZ = experiment: cells; type: functional, cell-based; settings: Homo sapiens
Description: SANGER: Inhibition of human VMRC-RCZ cell growth in a cell viability assay.

COLO 205 = experiment: cells; type: functional, cell-based; settings: Homo sapiens
Description: SANGER: Inhibition of human COLO-205 cell growth in a cell viability assay.

HT-1376 = experiment: cells; type: functional, cell-based; settings: Homo sapiens
Description: SANGER: Inhibition of human HT-1376 cell growth in a cell viability assay.

EW-7 = experiment: SANGER: Inhibition of human EW-7 cell growth in a cell viability assay.; type: functional, cell-based
NCI-H460 = experiment: cells; type: functional, cell-based; settings: Homo sapiens
Description: SANGER: Inhibition of human NCI-H460 cell growth in a cell viability assay.

RCM-1 = experiment: cells; type: functional, cell-based; settings: Homo sapiens
Description: SANGER: Inhibition of human RCM-1 cell growth in a cell viability assay.

SK-MEL3 = experiment: cells; type: functional, cell-based, SK-MEL-3; settings: Homo sapiens
Description: SANGER: Inhibition of human SK-MEL-3 cell growth in a cell viability assay.

HT-3 = experiment: cells; type: functional, cell-based; settings: Homo sapiens
Description: SANGER: Inhibition of human HT-3 cell growth in a cell viability assay.

NCI-H292 = experiment: cells; type: functional, cell-based; settings: Homo sapiens
Description: SANGER: Inhibition of human NCI-H292 cell growth in a cell viability assay.

PANC-08-13 = experiment: cells; type: functional, cell-based; settings: Homo sapiens
Description: SANGER: Inhibition of human PANC-08-13 cell growth in a cell viability assay.

SK-LU-1 = experiment: cells; type: functional, cell-based; settings: Homo sapiens
Description: SANGER: Inhibition of human SK-LU-1 cell growth in a cell viability assay.

NCI-H358 = experiment: cells; type: functional, cell-based; settings: Homo sapiens
Description: SANGER: Inhibition of human NCI-H358 cell growth in a cell viability assay.

SNU-475 = experiment: cells; type: functional, cell-based; settings: Homo sapiens
Description: SANGER: Inhibition of human SNU-475 cell growth in a cell viability assay.

SK-MES-1 = experiment: cells; type: functional, cell-based; settings: Homo sapiens
Description: SANGER: Inhibition of human SK-MES-1 cell growth in a cell viability assay.

HSC-3 = experiment: cells; type: functional, cell-based; settings: Homo sapiens
Description: SANGER: Inhibition of human HSC-3 cell growth in a cell viability assay.

## Nc1ccccc1NC(=O)c1ccc(CNC(=O)OCc2cccnc2)cc1 [ENTINOSTAT]
PF-382; Homo sapiens, PF-382
  IC50: 1.12 µM
NCI-H719; Homo sapiens, NCI-H719
  IC50: 1.18 µM
CHP-126; Homo sapiens, CHP-126
  IC50: 0.402 µM
NCI-H1436; Homo sapiens, NCI-H1436
  IC50: 4.18 µM
ECC12
  IC50: 0.701 µM
EW-12; Homo sapiens, EW-12
  IC50: > 5 µM
BC1 cell line; Homo sapiens, BC1
  IC50: 0.434 µM
HC-1; Homo sapiens, HC-1
  IC50: 0.505 µM
NCI-H2107
  IC50: 1.36 µM
NB14; Homo sapiens, NB14
  IC50: 0.726 µM

## CCCCCCCCCCCC1=C(O)C(=O)C=C(O)C1=O [EMBELIN]
PF-382; Homo sapiens, PF-382
  IC50: 6.17 µM
NCI-H719; Homo sapiens, NCI-H719
  IC50: > 32 µM
HMV-2 cell line
  IC50: 4.61 µM
Daoy
  IC50: 5.46 µM
TT
  IC50: 23.5 µM
SK-OV-3
  IC50: 10.9 µM
C-4-II
  IC50: > 32 µM
DMS-53
  IC50: 15.5 µM
OVCAR-8
  IC50: 11.3 µM
SW1573
  IC50: > 32 µM
CCF-STTG1
  IC50: 14 µM
Calu-1
  IC50: 17.1 µM
MG-63
  IC50: 9.64 µM
CHP-126; Homo sapiens, CHP-126
  IC50: > 32 µM
CHP-212
  IC50: 3.12 µM
HPAF-II
  IC50: 25.4 µM
NCI-H520
  IC50: 13.2 µM
KYSE-270
  IC50: 8.86 µM
MES-SA
  IC50: 16.5 µM
CAL-33
  IC50: 22.9 µM
GCT
  IC50: > 32 µM
NCI-H1618
  IC50: > 32 µM
H4
  IC50: 4.13 µM
BCPAP
  IC50: 13.7 µM
JEG-3
  IC50: 16.8 µM
C32
  IC50: 2.83 µM
CAPAN-1
  IC50: 9.01 µM
MIA PaCa-2
  IC50: 4.7 µM
647-V
  IC50: 24.5 µM
BHY
  IC50: 6.03 µM
NCI-H2228
  IC50: > 32 µM
VMRC-RCZ
  IC50: 9.47 µM
COLO 205
  IC50: 3.87 µM
HT-1376
  IC50: 5.9 µM
EW-7
  IC50: 23.2 µM
NCI-H460
  IC50: 6.09 µM
RCM-1
  IC50: 22.4 µM
SK-MEL3
  IC50: 16.2 µM
NCI-H1436; Homo sapiens, NCI-H1436
  IC50: > 32 µM
HT-3
  IC50: 27.6 µM
NCI-H292
  IC50: 29.4 µM
PANC-08-13
  IC50: > 32 µM
SK-LU-1
  IC50: 7.21 µM
BC1 cell line; Homo sapiens, BC1
  IC50: 5.03 µM
HC-1; Homo sapiens, HC-1
  IC50: 5.4 µM
NCI-H358
  IC50: 11.1 µM
SNU-475
  IC50: > 32 µM
SK-MES-1
  IC50: 5.01 µM
HSC-3
  IC50: 23.9 µM

## COc1ccc(N(C(=O)Oc2c(C)cccc2C)c2ccnc(Nc3ccc(N4CCN(C)CC4)cc3)n2)c(OC)c1
PF-382; Homo sapiens, PF-382
  IC50: 0.708 µM
NCI-H719; Homo sapiens, NCI-H719
  IC50: > 5.12 µM
CHP-126; Homo sapiens, CHP-126
  IC50: > 5.12 µM
NCI-H1436; Homo sapiens, NCI-H1436
  IC50: > 5.12 µM
EW-12; Homo sapiens, EW-12
  IC50: > 5.12 µM
BC1 cell line; Homo sapiens, BC1
  IC50: > 5.12 µM
HC-1; Homo sapiens, HC-1
  IC50: > 5.12 µM
NCI-H2107
  IC50: > 5.12 µM
NB14; Homo sapiens, NB14
  IC50: > 5.12 µM

## CC(C)C[C@@H](C=O)NC(=O)[C@H](CC(C)C)NC(=O)[C@H](CC(C)C)NC(=O)OCc1ccccc1 [MG-132] (Cbz-Leu-Leu-Leu-aldehyde)
PF-382; pf-382
  IC50: 0.167 µM and 0.584 µM
NCI-H719; nci-h719
  IC50: > 1 µM
CHP-126; chp-126
  IC50: > 1 µM
NCI-H1436; Homo sapiens, NCI-H1436
  IC50: > 1 µM
NCI-H1436; nci-h1436
  IC50: > 1 µM
ECC12
  IC50: > 1 µM
EW-12; ew-12
  IC50: > 1 µM
BC1 cell line; Homo sapiens, BC1
  IC50: > 1 µM
BC1 cell line; bc1
  IC50: > 1 µM
HC-1; hc-1
  IC50: > 1 µM
NCI-H2107
  IC50: > 1 µM
NB14; nb14
  IC50: > 1 µM

## COc1ccc(-c2cc3nccn3c(Nc3ncccc3C(N)=O)n2)cc1OC
PF-382; Homo sapiens, PF-382
  IC50: 2.41 µM
NCI-H719; Homo sapiens, NCI-H719
  IC50: > 8 µM
HMV-2 cell line
  IC50: 0.664 µM
Daoy
  IC50: > 8 µM
TT
  IC50: > 8 µM
SK-OV-3
  IC50: > 8 µM
C-4-II
  IC50: > 8 µM
DMS-53
  IC50: > 8 µM
OVCAR-8
  IC50: > 8 µM
SW1573
  IC50: > 8 µM
CCF-STTG1
  IC50: 7.24 µM
Calu-1
  IC50: > 8 µM
MG-63
  IC50: > 8 µM
CHP-126; Homo sapiens, CHP-126
  IC50: 6.5 µM
CHP-212
  IC50: 6.45 µM
HPAF-II
  IC50: > 8 µM
NCI-H520
  IC50: > 8 µM
KYSE-270
  IC50: 1.45 µM
MES-SA
  IC50: 0.96 µM
CAL-33
  IC50: > 8 µM
GCT
  IC50: 0.799 µM
NCI-H1618
  IC50: > 8 µM
H4
  IC50: > 8 µM
BCPAP
  IC50: 3.17 µM
JEG-3
  IC50: > 8 µM
C32
  IC50: > 8 µM
CAPAN-1
  IC50: 4.16 µM
MIA PaCa-2
  IC50: 5.4 µM
647-V
  IC50: 7.3 µM
BHY
  IC50: 2.81 µM
NCI-H2228
  IC50: 4.34 µM
VMRC-RCZ
  IC50: 5.58 µM
COLO 205
  IC50: 2.35 µM
HT-1376
  IC50: 3.25 µM
EW-7
  IC50: 1.98 µM
NCI-H460
  IC50: 2.46 µM
RCM-1
  IC50: > 8 µM
SK-MEL3
  IC50: 5.06 µM
NCI-H1436; Homo sapiens, NCI-H1436
  IC50: > 8 µM
HT-3
  IC50: > 8 µM
NCI-H292
  IC50: > 8 µM
PANC-08-13
  IC50: > 8 µM
SK-LU-1
  IC50: 2.03 µM
BC1 cell line; Homo sapiens, BC1
  IC50: 1.07 µM
HC-1; Homo sapiens, HC-1
  IC50: 0.754 µM
NCI-H358
  IC50: 0.689 µM
SNU-475
  IC50: > 8 µM
SK-MES-1
  IC50: 1.81 µM
HSC-3
  IC50: > 8 µM
